Structure (SMILES)	melting point [°C]
CSc1nc2c(c(=O)[nH]1)C=CCC2 [formula 6g, 2-Methylthio-7,8-dihydroquinazolin-4(3H)-one]	214
O=c1[nH]c(-c2ccc(Cl)cc2)nc2c1C=CCC2 [formula 6b, 2-(p-Chlorophenyl)-7,8-dihydroquinazolin-4(3H)-one]	> 250
O=c1[nH]c(-c2ccccc2F)nc2c1C=CCC2 [formula 6d, 2-(o-Fluorophenyl)-7,8-dihydroquinazolin-4(3H)-one]	191
O=c1[nH]c(N2CCNCC2)nc2c1CCCC2	121
O=c1[nH]c(-c2ccccc2)nc2c1CCCC2 [formula 7a, 2-Phenyl-5,6,7,8-tetrahydroquinazolin-4(3H)-one]	224
CN1CCN(c2nc3c(c(=O)[nH]2)CCCC3)CC1	210

Further lines, results first:

melting point [°C]	Structure (SMILES)
237	CC1CCc2nc(-c3ccccc3)[nH]c(=O)c2C1 (centres unmarked) [formula 10a, 6-Methyl-2-phenyl-5,6,7,8-tetrahydroquinazolin-4(3H)-one]
170	O=c1[nH]c(-c2ccccc2F)nc2c1CCCC2 [formula 7d, 2-(o-Fluorophenyl)-5,6,7,8-tetrahydroquinazolin-4(3H)-one]
> 250	CN1CCN(c2nc3c(c(=O)[nH]2)CC(S(=O)(=O)c2ccccc2)CC3)CC1 (centres unmarked) [formula 13c, 6-Benzenesulfonyl-2-(4-methylpiperazin-1-yl)-5,6,7,8-tetrahydroquinazolin-4(3H)-one]
221	CCC1CCc2nc(-c3ccccc3)[nH]c(=O)c2C1 (centres unmarked) [formula 10b, 6-Ethyl-2-phenyl-5,6,7,8-tetrahydroquinazolin-4(3H)-one]
218	CC1=Cc2c(nc(-c3ccccc3)[nH]c2=O)CC1 [formula 11a, 6-Methyl-2-phenyl-7,8-dihydroquinazolin-4(3H)-one]
255	O=c1[nH]c(-c2ccc(Cl)cc2)nc2c1CCCC2 [formula 7b, 2-(p-Chlorophenyl)-5,6,7,8-tetrahydroquinazolin-4(3H)-one]
> 250	O=c1[nH]c(N2CCN(Cc3ccccc3)CC2)nc2c1CC(S(=O)(=O)c1ccccc1)CC2 (centres unmarked) [formula 13b, 2-(4-benzylpiperazin-1-yl)-6-Benzenesulfonyl-5,6,7,8-tetrahydroquinazolin-4(3H)-one]
198	CCC1=Cc2c(nc(-c3ccccc3)[nH]c2=O)CC1 [formula 11b, 6-Ethyl-2-phenyl-7,8-dihydroquinazolin-4(3H)-one]

From patent US8268845B2, “Tetrahydro- and dihydroquinazolinones” (Merck Patent GmbH, priority 2005, dated 2012)
